Experimental data taken from EP1941863A2, “External preparation composition” (Lion Corporation, priority 2002, dated 2004).
Converted amounts (≈) assume the structure as drawn.

Assays:
guinea pig skin = experiment: continuous irritative test of guinea pig skin (Draize method); type: in vivo, guinea pig (Hartley series); set-up: key: sum of erythema (0-4) + edema (0-4) scores; max 8
Method: Each left and right two spots (4 spots/head) of applying parts having a frame of 2 cm x 2 cm were provided on the back of a shaved guinea pig (Hartley series, 7 weeks of age, female, N = 10), and each 50 µL of an ethanol/propylene glycol (7 : 3) solution containing 0.5 % of the respective acyl glucosamine derivatives shown in the following Table 1 was applied once a day on the respective frames.
A skin irritative score after application for 3 days straight was evaluated according to the following evaluation criteria (Draize method). The above irritative score was shown by the total points (full marks: 8 points) of erythema and edema.
• Erythema: • Evaluation point • 0: no erythema • 1: very weak erythema • 2: clear erythema • 3: middle to strong erythema • 4: very strong erythema to crust
• Evaluation point • 0: no edema • 1: very slight edema formation • 2: slight edema formation • 3: middle edema formation • 4: strong edema formation

[1] = solubility in the ethanol/propylene glycol (7 : 3) solvent (Japanese Pharmacopoeia criteria); type: physicochemical; settings: organic solvent or mixture, 20°C, within 30 minutes, amount of solvent for 1 g or 1 ml of solute
[2] = tested on: skin roughness in the inside of a forearm formed with 10 % SDS solution; experiment: skin roughness-improving test (SDS-induced roughness, stratum corneum conductance); type: in vivo, human being; settings: hydrophilic ointment with 0.05 %, twice a day, 3 days later; conductance relative to ointment with no tested substance = 100
Method: The skin roughness-improving degree observed 3 days later after application was evaluated using a change in a stratum corneum water content as an index. The stratum corneum water content is measured in terms of a conductance (µS). […] Skin roughness-improving rate (%) = [(conductance observed when applying the ointment blended with the tested substance)/(conductance observed when applying the ointment blended with no tested substance)] × 100 [formula]

[3] = tested on: pigmentation on the backs of color guinea pigs irradiated with UV rays; experiment: whitening evaluation on UV-induced pigmentation; type: in vivo; settings: 30 µL of 0.05 % in ethanol/propylene glycol (7 : 3), once a day, five times a week, 4 weeks; visual change in pigmentation
From the text: Back body hair of color guinea pigs were shaved by means of a hair clipper and a shaver, and they were irradiated with UV rays once a day, 4 times a week and 8 times in total, whereby 4 parts of pigmentation having an area of about 2.25 cm^2 were formed on the backs of the respective guinea pigs.

acnes of acne patients = experiment: acne-improvement evaluation with an essence for acne; type: in vivo; settings: essence with 0.05 %, a month later; for Evaluation ×: number of subjects rated × : worsened; for Evaluation Δ: number of subjects rated Δ : no change; for Evaluation ⊚: number of subjects rated ⊚ : notably improved, several times a day; for Evaluation ○: number of subjects rated ○ : improved; for Acne treating effect: subjects rated ○ or ⊚
Method: Prepared was an essence for acne shown in the following composition example in which 0.05 % of various acyl glucosamine derivatives shown in the following Table 6 was blended. An essence which was not blended with an acyl glucosamine derivative was prepared as a control.

[4] = tested on: wrinkles of the back skin of hairless mice irradiated with UVB; experiment: wrinkle-improving test in UVB-irradiated hairless mice; type: in vivo, hairless mice (hos: HR-1); settings: 100 µL of 0.05 % in ethanol/propylene glycol (7 : 3), once a day, five times a week, 8 weeks, after 10 weeks UVB 50 mJ/cm^2; visual score relative to control group
Method: Evaluation point 1: all fine striations along the spine are not observed; a few shallow and coarse wrinkles run perpendicularly to the head-to-tail direction; and the striations appear or disappear with the motion of the mouse. […] The respective bodies were evaluated by an evaluation point of a 0.5 unit to calculate an average point for the respective groups, and the wrinkle-improving rate was calculated for the respective groups according to the following equation (II). Wrinkle-improving rate (%) = [(average value of the control group-average value of a glucosamine derivative-applied group)/(average value of the control group)] × 100 [formula]

[5] = tested on: texture of the back skin of hairless mice irradiated with UVB; experiment: coarse texture-improving test in UVB-irradiated hairless mice (skin replica); type: in vivo, hairless mice (hos: HR-1); settings: 100 µL of 0.05 % in ethanol/propylene glycol (7 : 3), five times a week, 4 weeks, after 6 weeks UVB 40 mJ/cm^2; texture intersection points relative to start of test; control 24
From the text: The enlarged photographs of the respective replicas were taken through a macro lens (magnification: four times), and the photographs were used to evaluate "coarsening of the texture". The coarseness of the texture was defined by a "number of texture intersection point", wherein a point in which three or more sulci cutis are joined is counted as one intersection point, and the number of the texture intersection points present in a square of 1 cm x 1 cm was counted on the replica photograph. An average point for the respective groups was calculated, and the texture-improving rate was calculated according to the following equation (III). Table 4. Texture-improving rate (%) = [(number of texture intersection point after irradiating with UV or after application)/(number of texture intersection point at the time of starting the test)] × 100 [formula]

[6] = Table 2, by stereoisomer ratio, 0.5 % in ethanol/propylene glycol (7 : 3) once a day, 3 days straight, full marks 8
[7] = Table 1, 50 µL of 0.5 % in ethanol/propylene glycol (7 : 3) once a day, after 3 days straight, total points of erythema and edema, full marks 8, N = 10

| Compound | Draize score (guinea pig skin; [6]) | solubility at 0.5 h [1] [µg/mL] | Draize score (guinea pig skin; [7]) | Skin roughness-improving rate [2] [%] | Whitening-improving effect [3] | Evaluation × (acnes of acne patients) | Evaluation Δ (acnes of acne patients) | Evaluation ⊚ (acnes of acne patients) | Evaluation ○ (acnes of acne patients) | Acne treating effect (acnes of acne patients) [percentage] | Wrinkle-improving rate [4] [%] | Texture-improving rate [5] [%] | Draize score (guinea pig skin; guinea pig, in vivo) |
| --- | --- | --- | --- | --- | --- | --- | --- | --- | --- | --- | --- | --- | --- |
| 1,3,4,6-tetra-O-acetyl-N-retinoyl-D-glucosamine | 0.0 |  |  |  |  |  |  |  |  |  |  |  |  |
| CC(=O)OC[C@H]1OC(OC(C)=O)[C@H](NC(=O)/C=C(C)/C=C/C=C(C)/C=C/C2=C(C)CCCC2(C)C)[C@@H](OC(C)=O)[C@@H]1OC(C)=O (single isomer, unassigned) [1,3,4,6-tetra-O-acetyl-N-retinoyl-D-glucosamine] | 0.0 | 1000 to 10000 (≈ 1.59 to 15.9 mM) |  |  |  |  |  |  |  |  |  |  |  |
| CC(=O)OC[C@H]1OC(OC(C)=O)[C@H](NC(=O)/C=C(C)/C=C/C=C(C)/C=C/C2=C(C)CCCC2(C)C)[C@@H](OC(C)=O)[C@@H]1OC(C)=O (stereo partly drawn) [1,3,4,6-tetra-O-acetyl-N-retinoyl-D-glucosamine] |  |  | 0.0 |  |  |  |  |  |  |  |  |  |  |
| CCCCCCCCCCCCOC(=O)N[C@H]1C(O)O[C@H](CO)[C@@H](O)[C@@H]1O (stereo partly drawn) [N-dodecyloxycarbonyl-D-glucosamine] |  |  |  | 183 | +++ |  |  |  |  |  |  |  |  |
| CC(C)CCCCCCCCCCCCCCC(=O)N[C@H]1C(O)O[C@H](CO)[C@@H](O)[C@@H]1O (stereo partly drawn) [N-isostearoyl-D-glucosamine] |  |  | 0.1 | 136 | + | 0 | 2 | 0 | 3 | 60 | 80 | 72 |  |
| CCCCCCCCCCCC(=O)N[C@H]1C(O)O[C@H](CO)[C@@H](O)[C@@H]1O (stereo partly drawn) [N-lauroyl-D-glucosamine] |  |  | 0.1 | 114 | + | 1 | 1 | 0 | 1 | 33 | 78 | 87 |  |
| CCCCC/C=C\C/C=C\CCCCCCCC(=O)N[C@H]1C(O)O[C@H](CO)[C@@H](O)[C@@H]1O (stereo partly drawn) [N-linoleoyl-D-glucosamine] |  |  | 0.3 | 115 | ++ | 1 | 3 | 0 | 1 | 20 | 62 | 58 |  |
| CCCCCCCC/C=C\CCCCCCCC(=O)N[C@H]1C(O)O[C@H](CO)[C@@H](O)[C@@H]1O (stereo partly drawn) [N-oleoyl-D-glucosamine] |  |  | 0.2 | 114 | +++ | 0 | 2 | 0 | 3 | 60 | 65 | 59 |  |
| CC1=C(/C=C/C(C)=C/C=C/C(C)=C/C(=O)N[C@H]2C(O)O[C@H](CO)[C@@H](O)[C@@H]2O)C(C)(C)CCC1 [N-retinoyl-D-glucosamine (cis isomer/trans isomer = 0/100), N-retinoyl-D-glucosamine] | 0.0 | 1000 to 10000 (≈ 2.17 to 21.7 mM) |  |  |  |  |  |  |  |  |  |  |  |
| CC1=C(/C=C/C(C)=C/C=C/C(C)=C/C(=O)O)C(C)(C)CCC1 [Retinoic acid, reference compound] |  |  | 8.0 |  |  |  |  |  |  |  |  |  |  |
| N-POE(2)hexadecyletheroxycarbonyl-D-glucosamine |  |  |  | 139 | ++ | 0 | 2 | 0 | 3 | 60 | 72 | 89 | 0.1 |
| N-POE(5)octadecyletheroxycarbonyl-D-glucosamine |  |  |  | 128 | ++ | 0 | 3 | 0 | 2 | 40 | 73 | 92 | 0.2 |
| N-POE(10)docosyletheroxycarbonyl-D-glucosamine |  |  |  | 138 | ++ | 0 | 3 | 0 | 2 | 40 | 82 | 88 | 0.1 |
| N-retinoyl-D-glucosamine |  |  |  | 127 | +++ | 0 | 0 | 4 | 2 | 100 | 89 | 75 |  |
| N-retinoyl-D-glucosamine [N-retinoyl-D-glucosamine (9-cis isomer/13-cis isomer/trans i] | 0.1 |  | 0.1 |  |  |  |  |  |  |  |  |  |  |
| N-retinoyl-D-glucosamine [N-retinoyl-D-glucosamine (9-cis isomer/trans isomer = 0.5/99.5)] | 0.1 |  |  |  |  |  |  |  |  |  |  |  |  |
| N-retinoyl-D-glucosamine [N-retinoyl-D-glucosamine (13-cis isomer/trans isomer = 0.5/99.5)] | 0.0 |  |  |  |  |  |  |  |  |  |  |  |  |
